Reference: the supplement of paper PMC10307832

What was measured:
Assay in all cases: relative viability (nuclei count vs DMSO), 5 days (fraction); higher = more cells survive
NCI-H358 = system: NCI-H358
Method in brief: (§1)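 The day after seeding in 1536-well plates, lung cancer cell lines were treated by pin tool with a single drug, or with a fixed anchor-drug dose together with five library-drug doses (not always all listed) in √10 steps. After 5 days, a combined fix-and-stain solution (final 0.05% Triton X-100, 1% formaldehyde, 1 ug/ml Hoechst) was added. Nuclei counted on 4× images gave relative viability as treated counts over vehicle counts, reported as the median of duplicate plates.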

NCI-H650 = system: NCI-H650
Method in brief: as §1

NCI-H2342 = system: NCI-H2342
Method in brief: as §1

PC-3 [JPC-3] = system: PC-3 [JPC-3]
Method in brief: as §1

SK-MES-1 = system: SK-MES-1
Method in brief: as §1

UMC-11 = system: UMC-11
Method in brief: as §1

NCI-H1944 = system: NCI-H1944
Method in brief: as §1

LU99A = system: LU99A
Method in brief: as §1

H3255 = system: H3255
Method in brief: as §1

LK-2 = system: LK-2
Method in brief: as §1

LC-2-ad = system: LC-2-ad
Method in brief: as §1

ChaGo-K-1 = system: ChaGo-K-1
Method in brief: as §1

LCLC-97TM1 = system: LCLC-97TM1
Method in brief: as §1

LXF-289 = system: LXF-289
Method in brief: as §1

NCI-H596 = system: NCI-H596
Method in brief: as §1

BEN = system: BEN
Method in brief: as §1

NCI-H1666 = system: NCI-H1666
Method in brief: as §1

HCC-78 = system: HCC-78
Method in brief: as §1

HCC-15 = system: HCC-15
Method in brief: as §1

NCI-H322M = system: NCI-H322M
Method in brief: as §1

NCI-H838 = system: NCI-H838
Method in brief: as §1

NCI-H2087 = system: NCI-H2087
Method in brief: as §1

NCI-H1651 = system: NCI-H1651
Method in brief: as §1

NCI-H661 = system: NCI-H661
Method in brief: as §1

Clc1ccc(Nc2nnc(Cc3ccncc3)c3ccccc23)cc1 [Vatalanib] + COc1cc2c(Oc3ccc(NC(=O)C4(C(=O)Nc5ccc(F)cc5)CC4)cc3F)ccnc2cc1OCCCN1CCOCC1 [Foretinib] (partner 0.25 µM)
relative viability (NCI-H358; first compound 0.04 µM): 1.15
relative viability (NCI-H358; first compound 0.1265 µM): 0.568
relative viability (NCI-H358; first compound 0.4 µM): 0.533
relative viability (NCI-H358; first compound 1.265 µM): 0.718
relative viability (NCI-H358; first compound 4 µM): 0.621
relative viability (NCI-H650; first compound 0.04 µM): 1.08
relative viability (NCI-H650; first compound 0.1265 µM): 1.01
relative viability (NCI-H650; first compound 1.265 µM): 0.973
relative viability (NCI-H650; first compound 4 µM): 0.978
relative viability (NCI-H2342; first compound 0.04 µM): 1.08
relative viability (NCI-H2342; first compound 0.1265 µM): 1.03
relative viability (NCI-H2342; first compound 0.4 µM): 1.08
relative viability (NCI-H2342; first compound 1.265 µM): 1.16
relative viability (NCI-H2342; first compound 4 µM): 1.05
relative viability (PC-3 [JPC-3]; first compound 0.04 µM): 1.05
relative viability (PC-3 [JPC-3]; first compound 0.1265 µM): 0.977
relative viability (PC-3 [JPC-3]; first compound 0.4 µM): 1.05
relative viability (PC-3 [JPC-3]; first compound 1.265 µM): 0.987
relative viability (PC-3 [JPC-3]; first compound 4 µM): 1.02
relative viability (SK-MES-1; first compound 0.04 µM): 1.02
relative viability (SK-MES-1; first compound 0.1265 µM): 0.82
relative viability (SK-MES-1; first compound 0.4 µM): 0.943
relative viability (SK-MES-1; first compound 1.265 µM): 0.881
relative viability (SK-MES-1; first compound 4 µM): 0.692
relative viability (UMC-11; first compound 0.04 µM): 1.12
relative viability (UMC-11; first compound 0.1265 µM): 0.94
relative viability (UMC-11; first compound 0.4 µM): 0.916
relative viability (UMC-11; first compound 1.265 µM): 0.94
relative viability (UMC-11; first compound 4 µM): 1.02
relative viability (NCI-H1944; first compound 0.04 µM): 0.934
relative viability (NCI-H1944; first compound 0.1265 µM): 0.891
relative viability (NCI-H1944; first compound 0.4 µM): 0.936
relative viability (NCI-H1944; first compound 1.265 µM): 0.892
relative viability (NCI-H1944; first compound 4 µM): 0.87
relative viability (LU99A; first compound 0.04 µM): 0.809
relative viability (LU99A; first compound 0.1265 µM): 0.842
relative viability (LU99A; first compound 0.4 µM): 0.917
relative viability (LU99A; first compound 1.265 µM): 0.75
relative viability (LU99A; first compound 4 µM): 0.848
relative viability (H3255; first compound 0.04 µM): 0.763
relative viability (H3255; first compound 0.1265 µM): 0.917
relative viability (H3255; first compound 0.4 µM): 0.64
relative viability (H3255; first compound 1.265 µM): 0.829
relative viability (H3255; first compound 4 µM): 0.789
relative viability (LK-2; first compound 0.04 µM): 1.14
relative viability (LK-2; first compound 0.1265 µM): 1.19
relative viability (LK-2; first compound 0.4 µM): 1.29
relative viability (LK-2; first compound 1.265 µM): 1.6
relative viability (LK-2; first compound 4 µM): 1.5
relative viability (LC-2-ad; first compound 0.04 µM): 0.999
relative viability (LC-2-ad; first compound 0.1265 µM): 0.777
relative viability (LC-2-ad; first compound 1.265 µM): 0.852
relative viability (LC-2-ad; first compound 4 µM): 0.87
relative viability (ChaGo-K-1; first compound 0.04 µM): 1
relative viability (ChaGo-K-1; first compound 0.1265 µM): 0.916
relative viability (ChaGo-K-1; first compound 0.4 µM): 0.976
relative viability (ChaGo-K-1; first compound 1.265 µM): 0.881
relative viability (ChaGo-K-1; first compound 4 µM): 0.893
relative viability (LCLC-97TM1; first compound 0.04 µM): 0.975
relative viability (LCLC-97TM1; first compound 0.1265 µM): 0.833
relative viability (LCLC-97TM1; first compound 0.4 µM): 1.01
relative viability (LCLC-97TM1; first compound 1.265 µM): 0.949
relative viability (LCLC-97TM1; first compound 4 µM): 0.835
relative viability (LXF-289; first compound 0.04 µM): 0.97
relative viability (LXF-289; first compound 0.1265 µM): 0.966
relative viability (LXF-289; first compound 0.4 µM): 0.98
relative viability (LXF-289; first compound 1.265 µM): 0.945
relative viability (LXF-289; first compound 4 µM): 0.931
relative viability (NCI-H596; first compound 0.04 µM): 0.775
relative viability (NCI-H596; first compound 0.1265 µM): 1.06
relative viability (NCI-H596; first compound 0.4 µM): 0.909
relative viability (NCI-H596; first compound 1.265 µM): 0.81
relative viability (NCI-H596; first compound 4 µM): 0.771
relative viability (BEN; first compound 0.04 µM): 0.705
relative viability (BEN; first compound 0.1265 µM): 0.526
relative viability (BEN; first compound 0.4 µM): 0.845
relative viability (BEN; first compound 1.265 µM): 0.511
relative viability (BEN; first compound 4 µM): 0.696
relative viability (NCI-H1666; first compound 0.04 µM): 1
relative viability (NCI-H1666; first compound 0.1265 µM): 1.02
relative viability (NCI-H1666; first compound 0.4 µM): 0.997
relative viability (NCI-H1666; first compound 1.265 µM): 0.962
relative viability (NCI-H1666; first compound 4 µM): 0.925
relative viability (HCC-78; first compound 0.04 µM): 0.531
relative viability (HCC-78; first compound 0.1265 µM): 0.551
relative viability (HCC-78; first compound 0.4 µM): 0.535
relative viability (HCC-78; first compound 1.265 µM): 0.503
relative viability (HCC-78; first compound 4 µM): 0.47
relative viability (HCC-15; first compound 0.04 µM): 1
relative viability (HCC-15; first compound 0.1265 µM): 1.06
relative viability (HCC-15; first compound 0.4 µM): 1.02
relative viability (HCC-15; first compound 1.265 µM): 0.996
relative viability (HCC-15; first compound 4 µM): 1.03
relative viability (NCI-H322M; first compound 0.04 µM): 1
relative viability (NCI-H322M; first compound 0.1265 µM): 0.974
relative viability (NCI-H322M; first compound 0.4 µM): 1.03
relative viability (NCI-H322M; first compound 1.265 µM): 0.878
relative viability (NCI-H322M; first compound 4 µM): 0.896
relative viability (NCI-H838; first compound 0.04 µM): 1.11
relative viability (NCI-H838; first compound 0.1265 µM): 1.03
relative viability (NCI-H838; first compound 0.4 µM): 1.13
relative viability (NCI-H838; first compound 1.265 µM): 1.04
relative viability (NCI-H838; first compound 4 µM): 1.01
relative viability (NCI-H2087; first compound 0.04 µM): 1.15
relative viability (NCI-H2087; first compound 0.1265 µM): 1.08
relative viability (NCI-H2087; first compound 0.4 µM): 1.27
relative viability (NCI-H2087; first compound 1.265 µM): 0.958
relative viability (NCI-H2087; first compound 4 µM): 1.03
relative viability (NCI-H1651; first compound 0.04 µM): 0.885
relative viability (NCI-H1651; first compound 0.1265 µM): 0.768
relative viability (NCI-H1651; first compound 0.4 µM): 0.94
relative viability (NCI-H1651; first compound 1.265 µM): 0.803
relative viability (NCI-H1651; first compound 4 µM): 0.817
relative viability (NCI-H661; first compound 0.04 µM): 1
relative viability (NCI-H661; first compound 0.1265 µM): 1.04
relative viability (NCI-H661; first compound 0.4 µM): 1.07
relative viability (NCI-H661; first compound 1.265 µM): 0.975
relative viability (NCI-H661; first compound 4 µM): 0.989
